Experimental data reported in ChEMBL document CHEMBL1141696 (Bioorg Med Chem Lett, 2008).

How the values were obtained:
[1] = Binding affinity to delta opioid receptor in guinea pig forebrain; set-up: species or system Cavia porcellus
Mus musculus = assay: Antinociceptive activity in sc dosed mouse assessed as attenuation of acetic acid-induced writhing per 10 mins; format: functional

Row | SMILES | Ki [1] [nM] | Activity (Mus musculus) | ED50 (Mus musculus) [mg/kg]
1 | O=C1CC[C@@]2(O)[C@H]3Cc4ccc(O)c5c4[C@@]2(CCN3CC2CC2)[C@H]1O5 [NALTREXONE] | 20.7 |  | 
2 | CC(C)CN1CC[C@]23c4c5ccc(O)c4O[C@H]2C(=O)CC[C@@]3(O)[C@H]1C5 | 229 | Dose-dependent effect | 5.05
